Tests used:
[1] = system: primary neuronal cells; assay: Inhibition of Aβ1-42-induced neuron apoptosis (MTS cell viability); assay type: cell-based, ICR mice; details: different concentrations with Aβ1-42 (5 μM), 24 hours; compared to control treated with Aβ1-42 alone; FIG. 2
Method: Specifically, primary neuronal cells derived from ICR mice were seeded in 96-wells at 5×10^5 cells per well and cultured for 6 days. Afterwards, the six compounds of Example 1 above were treated at different concentrations and Aβ1-42 (5 μM) was treated to induce neuron apoptosis, and the cells were treated together for 24 hours. Afterwards, a MTS solution was added to the medium and incubated for 2 hours. Cytotoxicity (cell viability) was measured using a microplate spectrophotometer (Bio-Tek Power Wave XS, Winooski, VT, USA), and absorbance was measured at 490 nm.
Next, the neuron apoptosis inhibition efficacy for the same concentration of CBDA, CBD, THCA and THC was evaluated using the same method as above. Memantine, known as an Alzheimer's treatment, was used as a positive control group.

[2] = system: amyloid beta (Aβ); assay: Western blotting of Aβ expression in Aβ1-42-treated primary neuronal cells; assay type: cell-based, ICR mice; details: with Aβ1-42 (5 μM), 24 hours; compared to Aβ1-42 alone; FIG. 5
Method: Specifically, primary neuronal cells derived from ICR mice were cultured for 6 days, and then treated with CBDA, THCA, THC, or CBN compounds while treating with Aβ1-42 (5 μM), and treated together for 24 hours. Next, Western blotting was conducted to confirm the expression levels of APP (Amyloid Precursor Protein), polymeric Aβ, and oligomeric AB in the cells.
(§1) To conduct Western blotting, tissues were homogenized in radioimmunoprecipitation assay buffer (Cell Signaling) to acquire tissue lysates. Tissue protein concentrations were determined using the Bio-Rad protein assay (Bio-Rad, Hercules, CA, USA), and Western blot analysis was conducted using 80-120 μg of protein. Next, the Western blotting samples prepared using the proteins were separated using 12% SDS-PAGE and transferred to a polyvinylidene fluoride membrane (PVDF) (Merck Millipore, Burlington, MA, USA; 0.4 μm). The PVDF was blocked with tris-buffered saline including 5% bovine serum albumin and Tween-20, and incubated with primary antibodies overnight at 4° C. After primary antibody incubation, the samples were incubated with HRP-conjugated secondary antibody (Sigma; 1:5000) for 1 hour at room temperature, and immunodetection was conducted using an enhanced chemiluminescence detection kit (GE Healthcare, Chicago, IL, USA).

[3] = system: phosphorylated tau (p-Tau); assay: Western blotting of Tau/p-Tau in Aβ1-42-treated primary neuronal cells; assay type: cell-based, ICR mice; details: with Aβ1-42 (5 μM), 24 hours; compared to Aβ1-42 alone; FIG. 7
Method: as §1
Specifically, primary neuronal cells derived from ICR mice were cultured for 6 days, and then treated with CBDA, THCA, THC, or CBN compounds while treating with Aβ1-42 (5 μM), and treated together for 24 hours. Next, to confirm the expression levels of Tau and phosphorylated Tau (p-Tau) in the cells, Western blotting was conducted using the method disclosed in Example 4 above.

[4] = system: primary cortical neuron cells; assay: Intracellular calcium concentration in neuronal cells (fluo-4 AM fluorescence imaging); assay type: cell-based; details: CBDA (6.25 μM), THCA (12.5 μM), THC (12.5 μM) with Aβ1-42 (5 μM), 24 hours; compared to Aβ1-42 alone; FIG. 8 and 9
Method: Specifically, primary cortical neuron cells were seeded in 96-wells at 5×10^5 cells per well and cultured for 6 days. […] Next, to measure the concentration of calcium ions in neuronal cells by detecting Ca^2+ using fluorescence imaging, the cells were washed with PBS and treated with 10 μM Ca^2+ indicator fluo-4 AM (Thermo) for […]. The stained sections were washed with PBS, covered with Prolong Gold Antifide Reagent (Invitrogen, Carlsbad, CA, USA) including DAPI nuclear stain, and observed using a microscope (Carl Zeiss, Oberkochen, Germany). Fluo-4 AM fluorescence signal intensity was measured using the Image J analysis program (National Institute of Health, Bethesda, […], USA).

## CCCCCc1cc(O)c2c(c1)OC(C)(C)[C@@H]1CCC(C)=C[C@@H]21 [THC, (6aR, 10aR)-delta-9-Tetrahydrocannabinol]
[1]
  cell survival rate level: significantly increased
[2]
  expression level of AB: significantly reduced
[3]
  expression level of p-Tau: significantly reduced
  phosphorylation level of p-Tau: significantly reduced
[4]
  intracellular calcium ion concentration: significantly reduced

## CCCCCc1cc(O)c2c(c1)OC(C)(C)c1ccc(C)cc1-2 [CBN, 6,6,9-Trimethyl-3-pentyl-benzo[c]chromen-1-ol]
[1]
  cell survival rate level: significantly increased
[2]
  expression level of AB: significantly reduced
[3]
  phosphorylation level of p-Tau: not

From US20260000685A1, “PHARMACEUTICAL COMPOSITION FOR PREVENTING OR TREATING DEGENERATIVE BRAIN DISEASES, COMPRISING CANNABINOIDS AS ACTIVE INGREDIENT, AND USES THEREOF” (NEOCANNBIO CO., LTD., priority 2022, published 2026)
